In patent US8461202B2, “Composition for treating infectious diseases” (priority 2007, dated 2013):

Assays:
flavodoxin of H. pylori = target: T1, flavodoxin of H. pylori (Helicobacter pylori, UniProt O25776); experiment: Binding to flavodoxin by isothermal titration calorimetry (ITC); conditions: 50 mM EPPS buffer, pH 9 with 7% DMSO, protein around 20 μM, read-out: affinity for flavodoxin (affinity constant)
T1 construct: made in house; host or cells: E. coli BL21
Method: The specific binding of the inhibitors of the present invention to flavodoxin of H. pylori was confirmed by isothermal titration calorimetry (ITC). This technique not only measures the affinity of each compound for the target protein, but also determines the contribution of the enthalpic and entropic components of binding.
The binding experiments were carried out in 50 mM EPPS buffer, pH 9 with 7% DMSO, with the inhibitor in the injection syringe at a concentration of 300-500 μM, and the protein around 20 μM in the measurement cell.

H. pylori flavodoxin = target: T2, H. pylori flavodoxin (Helicobacter pylori, UniProt O25776); experiment: Inhibition of the sequential electron transfer reaction pyruvate-PFOR-flavodoxin-FqrB-NADP+ (NADPH formation at 340 nm); format: biochemical; conditions: 50 μM compound; anaerobic; absorbance at 340 nm; 10 μM Fld
T2 construct: made in house; host or cells: E. coli BL21 (flavodoxin); E. coli JVQ2 (PFOR); E. coli BL21(DE3) (FqrB)
T2 sequence (O25776 1-164): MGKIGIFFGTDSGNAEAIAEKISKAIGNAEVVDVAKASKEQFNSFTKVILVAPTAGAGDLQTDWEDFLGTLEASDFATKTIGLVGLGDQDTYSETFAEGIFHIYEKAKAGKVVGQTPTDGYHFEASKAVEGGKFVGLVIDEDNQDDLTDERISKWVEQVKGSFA
Source text: Measurement of the absorbance (A) (AU is the unit of absorbance) at 340 nm against time (t) in seconds (s).
Flavodoxin is an essential protein for Helicobacter pylori survival as it participates in a fundamental reaction for obtaining energy from the oxidative decarboxylation of pyruvate. In this reaction, flavodoxin transfers electrons between the PFOR enzyme and the FqrB enzyme, which releases them to NADP^+.
The sequential reaction of electron transfer between pyruvate, PFOR, flavodoxin, FqrB and NADP^+ (activity assay) was followed spectroscopically by the appearance of the signal at 340 nm with the formation of NADPH. The reaction mixture contained 100 mM potassium phosphate pH 7, 10 mM pyruvate, 0.18 mM CoA, 1 mM MgCl, 0.3 mM NADP^+, 0.09 mg/ml PFOR, 10 μM Fld and 0.15 μM FqrB. The mixture, except CoA, was placed in a cuvette specially designed for anaerobic conditions. Oxygen was removed by means of 5 minute cycles with alternate flows of vacuum and argon. The reaction was started by the addition of 0.18 mM coenzyme A (CoA) that was held in a compartment inside the same cuvette. The reaction completed 15 minutes after adding the CoA reagent.
The inhibition assays were carried out in the same conditions as the activity assays previously described, adding an additional 50 μM of the disclosed compound of the general formula shown in (II) to the reaction cuvette.

O=[N+]([O-])/C=C/c1cc(C(F)(F)F)cc(C(F)(F)F)c1 [(II)]
Kd (flavodoxin of H. pylori): 8 µM
inhibition of product (NADPH) formation in the essential reaction of H. pylori (H. pylori flavodoxin): almost total
